The source made the active and inactive calls. The calls are words filed in the database; no cut-off is given here.
Experiments:
[1] = tested on: Escherichia coli; experiment: Antibacterial activity against Escherichia coli K12 harbouring wild type elongation factor P at 500 uM incubated for 240 mins by turbidity based analysis; format: functional, organism-based
[2] = tested on: Escherichia coli; experiment: Antibacterial activity against Escherichia coli K12 harbouring elongation factor P deltayjeK variant assessed as reduction in bacterial growth at 500 uM incubated for 240 mins by turbidity based analysis; format: functional, organism-based
[3] = tested on: Escherichia coli; experiment: Antibacterial activity against Escherichia coli K12 harbouring elongation factor P deltapoxA variant assessed as reduction in bacterial growth at 500 uM incubated for 240 mins by turbidity based analysis; format: functional, organism-based
[4] = tested on: Escherichia coli; experiment: Antibacterial activity against Escherichia coli K12 harbouring elongation factor P delta-efp variant assessed as reduction in bacterial growth at 500 uM incubated for 240 mins by turbidity based analysis; format: functional, organism-based
[5] = Cytotoxicity against HEK293 cells assessed as cell survival rate at 50 uM relative to control; format: toxicity, cell-based; details: human, read-out: Survival
[6] = tested on: Escherichia coli; experiment: Antibacterial activity against Escherichia coli K12 harbouring elongation factor P deltayjeK variant assessed as restoration in bacterial growth at 500 uM incubated for 240 mins in presence of gentamicin by turbidity based analysis; format: functional, organism-based
[7] = Cytotoxicity against HEK293 cells assessed as inhibition of cell growth; format: toxicity, cell-based; details: human
[8] = Cytotoxicity against HEK293 cells assessed as cell survival rate at 500 uM relative to control; format: toxicity, cell-based; details: human, read-out: Survival
[9] = tested on: Escherichia coli; experiment: Antibacterial activity against Escherichia coli K12 harbouring elongation factor P deltayjeK variant assessed as reduction in bacterial growth incubated for 240 mins by turbidity based analysis; format: functional, organism-based

Row | Compound | Activity [2] | Activity [6] | other results
1 | NCCCCCCCCCCCCNCCCC(N)CC(=O)O (racemic) | Active |  | Activity [1]: Active; Activity [3]: Active; Activity [4]: Active; viability at 50 µM [5]: 14%
2 | CCCCCCNCCCC(N)CC(=O)O (racemic) |  | Active | IC50 [7]: 110 µM
3 | NCCCCCCCCCCNCCCC(N)CC(=O)O (racemic) | Active |  | Activity [1]: Active; IC50 [7]: 250 µM; viability at 50 µM [5]: 81%; viability at 500 µM [8]: 0%
4 | CC(=O)NCCCC(N)CC(=O)O (racemic) |  | Active | 
5 | CCCNCCCC(N)CC(=O)O (racemic) |  | Active | 
6 | CCNCCCC(N)CC(=O)O (racemic) |  | Active | 
7 | CNCCCC(N)CC(=O)O (racemic) |  | Active | 
8 | NC(CCCNCc1ccccc1)CC(=O)O (racemic) |  | Active | 
9 | NCCCCC(N)CC(=O)O (racemic) | Active |  | 
10 | NCCCCCCCCCCCNCCCC(N)CC(=O)O (racemic) |  |  | Activity [1]: Active
11 | NCCCCCCCCNCCCC(N)CC(=O)O (racemic) |  | Active | 
12 | GENTAMICIN | Active |  | MIC [9]: 6 µg/mL
